In brackets after ≈: the same amount, converted by molar mass.
How the values were obtained:
Staphylococcus aureus [1] = assay: Antibacterial activity against Staphylococcus aureus assessed as bacterial growth inhibition by broth microdilution assay; assay type: functional
Staphylococcus aureus [2] = assay: Potency index, ratio of ciprofloxacin MIC to test compound MIC for antibacterial activity against Staphylococcus aureus assessed as bacterial growth inhibition by broth microdilution assay; assay type: functional
Staphylococcus aureus [3] = assay: Antibacterial activity against Staphylococcus aureus assessed as bacterial growth inhibition measured after 24 hrs by agar cup diffusion assay; assay type: functional
Escherichia coli [4] = assay: Antibacterial activity against Escherichia coli assessed as bacterial growth inhibition measured after 24 hrs by agar cup diffusion assay; assay type: functional
Pseudomonas aeruginosa [5] = assay: Antibacterial activity against Pseudomonas aeruginosa assessed as bacterial growth inhibition measured after 24 hrs by agar cup diffusion assay; assay type: functional
Staphylococcus aureus [6] = assay: Potency index, ratio of ciprofloxacin MIC to test compound MIC for antimicrobial activity against Staphylococcus aureus assessed as bacterial growth inhibition measured after 24 hrs by agar cup diffusion assay; assay type: functional
Staphylococcus aureus [7] = assay: Antibacterial activity against clinical isolate methicillin sensitive Staphylococcus aureus ATCC 29213 assessed as bacterial growth inhibition measured after 18 to 20 hrs by broth microdilution assay; assay type: functional; settings: time 18-20 hrs
Staphylococcus aureus [8] = assay: Antibacterial activity against methicillin sensitive Staphylococcus aureus clinical isolate 15 assessed as bacterial growth inhibition measured after 18 to 20 hrs by broth microdilution assay; assay type: functional; settings: time 18-20 hrs
Staphylococcus aureus [9] = assay: Antibacterial activity against methicillin sensitive Staphylococcus aureus clinical isolate 18-3 assessed as bacterial growth inhibition measured after 18 to 20 hrs by broth microdilution assay; assay type: functional; settings: time 18-20 hrs
Staphylococcus aureus [10] = assay: Antibacterial activity against clinical isolate methicillin sensitive Staphylococcus aureus BAA 976 assessed as bacterial growth inhibition measured after 18 to 20 hrs by broth microdilution assay; assay type: functional; settings: time 18-20 hrs
Staphylococcus aureus [11] = assay: Antibacterial activity against clinical isolate methicillin sensitive Staphylococcus aureus BAA 1708 assessed as bacterial growth inhibition measured after 18 to 20 hrs by broth microdilution assay; assay type: functional; settings: time 18-20 hrs
Staphylococcus aureus [12] = assay: Antibacterial activity against clinical isolate methicillin resistant Staphylococcus aureus ATCC 33591 assessed as bacterial growth inhibition measured after 18 to 20 hrs by broth microdilution assay; assay type: functional; settings: time 18-20 hrs
Staphylococcus aureus [13] = assay: Antibacterial activity against clinical isolate methicillin resistant Staphylococcus aureus ATCC 43300 assessed as bacterial growth inhibition measured after 18 to 20 hrs by broth microdilution assay; assay type: functional; settings: time 18-20 hrs
Staphylococcus aureus [14] = assay: Antibacterial activity against methicillin resistant Staphylococcus aureus clinical isolate 18-2 assessed as bacterial growth inhibition measured after 18 to 20 hrs by broth microdilution assay; assay type: functional; settings: time 18-20 hrs
Staphylococcus aureus [15] = assay: Antibacterial activity against clinical isolate vancomycin intermediate resistant Staphylococcus aureus ATCC 700699 assessed as bacterial growth inhibition measured after 18 to 20 hrs by broth microdilution assay; assay type: functional; settings: time 18-20 hrs
Staphylococcus aureus [16] = assay: Antibacterial activity against clinical isolate vancomycin intermediate resistant Staphylococcus aureus HIP 5836 assessed as bacterial growth inhibition measured after 18 to 20 hrs by broth microdilution assay; assay type: functional; settings: time 18-20 hrs
Staphylococcus aureus [17] = assay: Antibacterial activity against clinical isolate vancomycin intermediate resistant Staphylococcus aureus HIP 5827 assessed as bacterial growth inhibition measured after 18 to 20 hrs by broth microdilution assay; assay type: functional; settings: time 18-20 hrs
[18] = Microsomal stability in mouse liver microsomes assessed as half life measured upto 60 mins in presence of NADPH by HPLC analysis; assay type: ADME, Microsome
[19] = Microsomal stability in mouse plasma assessed as half life measured upto 60 mins in presence of NADPH by HPLC analysis; assay type: ADME, cell-free
Staphylococcus aureus [20] = assay: Antibacterial activity against Staphylococcus aureus assessed as bacterial growth inhibition by agar cup diffusion method; assay type: functional
Staphylococcus aureus [21] = assay: Antibacterial activity against Staphylococcus aureus AUMC B-73 assessed as bacterial growth inhibition by agar cup diffusion method; assay type: functional
Pseudomonas aeruginosa [22] = assay: Antibacterial activity against imipenem resistant Pseudomonas aeruginosa VIM-2 assessed as bacterial growth inhibition measured after 24 hrs by agar dilution assay; assay type: functional
Enterobacter cloacae = assay: Antibacterial activity against fosfomycin resistant Enterobacter cloacae assessed as bacterial growth inhibition measured after 24 hrs by agar dilution assay; assay type: functional
Escherichia coli [23] = assay: Antibacterial activity against ESBL-producing Escherichia coli assessed as bacterial growth inhibition measured after 24 hrs by agar dilution assay; assay type: functional
Enterococcus faecalis [24] = assay: Antibacterial activity against Enterococcus faecalis ATCC 29212 assessed as bacterial growth inhibition measured after 24 hrs by agar dilution assay; assay type: functional
Enterococcus faecalis [25] = assay: Antibacterial activity against vancomycin resistant Enterococcus faecalis assessed as bacterial growth inhibition measured after 24 hrs by agar dilution assay; assay type: functional
Serratia marcescens = assay: Antibacterial activity against Serratia marcescens assessed as bacterial growth inhibition measured after 24 hrs by agar dilution assay; assay type: functional
Salmonella typhimurium = assay: Antibacterial activity against Salmonella typhi assessed as bacterial growth inhibition measured after 24 hrs by agar dilution assay; assay type: functional, Salmonella enterica subsp. enterica serovar […]; settings: Salmonella enterica
Citrobacter = assay: Antibacterial activity against Citrobacter assessed as bacterial growth inhibition measured after 24 hrs by agar dilution assay; assay type: functional

O=C(CN1CCN(c2cc3c(cc2F)c(=O)c(C(=O)O)cn3C2CC2)CC1)N/N=C/C=C/c1c(F)cccc1F
MIC (Staphylococcus aureus [1]): ≤ 0.125 µg/mL | Ratio (Staphylococcus aureus [2]): >=4

O=C(/C=C/c1cccc(Cl)c1)c1ccc(NC(=O)N2CCN(c3cc4c(cc3F)c(=O)c(C(=O)O)cn4C3CC3)CC2)cc1
MIC (Staphylococcus aureus [3]): 0.06 µg/mL (≈ 0.0976 µM) | MIC (Escherichia coli [4]): 0.06 µg/mL (≈ 0.0976 µM) | MIC (Pseudomonas aeruginosa [5]): 0.06 µg/mL (≈ 0.0976 µM) | Ratio (Staphylococcus aureus [6]): 54

CCCCCc1nc2ccccc2c(=O)n1NC(=O)c1c(O)c2ccccc2n(CC)c1=O
MIC (Staphylococcus aureus [7]): 4 µg/mL (≈ 8.96 µM) | MIC (Staphylococcus aureus [8]): 4 µg/mL (≈ 8.96 µM) | MIC (Staphylococcus aureus [9]): 4 µg/mL (≈ 8.96 µM) | MIC (Staphylococcus aureus [10]): 4 µg/mL (≈ 8.96 µM) | MIC (Staphylococcus aureus [11]): 4 µg/mL (≈ 8.96 µM) | MIC (Staphylococcus aureus [12]): 4 µg/mL (≈ 8.96 µM) | MIC (Staphylococcus aureus [13]): 4 µg/mL (≈ 8.96 µM) | MIC (Staphylococcus aureus [14]): 4 µg/mL (≈ 8.96 µM) | MIC (Staphylococcus aureus [15]): 4 µg/mL (≈ 8.96 µM) | MIC (Staphylococcus aureus [16]): 4 µg/mL (≈ 8.96 µM) | MIC (Staphylococcus aureus [17]): 4 µg/mL (≈ 8.96 µM) | half-life [18]: > 373 min | half-life [19]: 24.5 min

C/C(=N\O)c1ccc(NC(=O)C(C)N2CCN(c3cc4c(cc3F)c(=O)c(C(=O)O)cn4C3CC3)CC2)cc1 (centres undefined)
MIC (Staphylococcus aureus [20]): 0.38 µg/mL (≈ 0.71 µM) | MIC (Staphylococcus aureus [21]): 0.2 µg/mL (≈ 0.373 µM)

CCOP(=O)(OCC)C(Nc1ncc(-c2cc3ccccc3oc2=O)s1)c1cc2cccc(C)c2[nH]c1=O (centres undefined)
MIC (Pseudomonas aeruginosa [22]): 0.25 µg/mL (≈ 0.453 µM) | MIC (Enterobacter cloacae): 0.25 µg/mL (≈ 0.453 µM) | MIC (Escherichia coli [23]): 0.25 µg/mL (≈ 0.453 µM) | MIC (Enterococcus faecalis [24]): 0.25 µg/mL (≈ 0.453 µM) | MIC (Enterococcus faecalis [25]): 0.25 µg/mL (≈ 0.453 µM) | MIC (Serratia marcescens): 0.25 µg/mL (≈ 0.453 µM) | MIC (Salmonella typhimurium): 0.25 µg/mL (≈ 0.453 µM) | MIC (Citrobacter): 0.25 µg/mL (≈ 0.453 µM)

— ChEMBL document CHEMBL5360532, “Current scenario of quinolone hybrids with potential antibacterial activity against ESKAPE pathogens” (Eur J Med Chem, 2023)
